The conditions of series [1]: cited from earlier work.
For series [2] the following is noted: cited from earlier work. The source holds these as a separate data set.
Series [3] deals with wheat powdery mildew (Erysiphe graminis). The series can be described thus: Control of wheat powdery mildew by formulated culture broths. The format is in vivo. The settings on record: 14 days. Here is the method: B.subtilis NCIB 12376 was grown in a yeast peptone-glucose broth at 30° C. in an orbital shaker for 72 hours. The formulants listed in Table 9 were added to samples of culture broths at the concentrations given in Table 9 and stirred until dispersed or dissolved. The formulated broths were tested for control of wheat powdery mildew (Erysiphe graminis) by spraying to run-off wheat plants (cv. Aquila) at the two leaf stage (Zadocks GS 12) prior to inoculation with an aqueous suspension of E. graminis conidia. For each formulation 20 replicate pots of plants were sprayed. Ten pots from each treatment were then thoroughly drenched with a mist bench for 4 minutes, one hour after spraying. All pots were incubated in a glasshouse for 14 days before assessment of disease levels (Table 9).

The text below walks through data of patent US5061495A, “Antibiotic derived from B. subtilis” (Agricultural Genetics Company Limited, priority 1988, dated 1991).

Where two headings read alike, the source gives them in different places.

With Chaetomacin, the Solubility in acetone result in series [1] (literature) is listed as “soluble”.
With Rhizoctonia factor, in series [1] (literature), the Solubility in butanol entry is “insoluble” and the Solubility in ethanol entry is “insoluble”. The Thermostability entry in series [2] (pH 2 only, refs. 5 and 9) was “thermostable only at pH 2”.
Take `CC(C)(C)C(=O)C(Oc1ccc(Cl)cc1)n1cncn1` (centres unmarked) [Triadimefon]: the “Disease Level (% leaf area infected)” value in series [3] (drenched 4 minutes, one hour after spraying, no treatment 5.6) is 0.1%; in series [3] (undrenched, no treatment 2.0), 0.2%.
Regarding Bacillomycin L, the Partition into butanol result in series [1] (neutral pH) is on record as “does not partition into butanol”. Besides, the Thermostability result in series [2] (pH 3, 14 and 23) was “thermostable”; in series [2] (pH 10, 14 and 23), “thermostable”.
Take Mycobacillin: in series [1] (literature), the Solubility in acetone result is listed as “soluble”. Further, the Solubility in water entry in series [1] (pH values of 7 and below, refs. 20 and 22) is recorded as “insoluble”.
Turning to Mycosubtilin, in series [1] (literature), the Solubility in butanol result is on record as “insoluble” and the Solubility in ethanol entry was “insoluble”. Moreover, the Solubility in methanol entry in series [1] (methanol, literature) is given as “insoluble”.
As to Iturin A, the Thermostability entry in series [2] (pH 3, 14 and 23) is “thermostable”; in series [2] (pH 10, 14 and 23) it was “thermostable”.
For Fungistatin, in series [1] (water), the “Behaviour on contact with water” value was “forms an inactive gel when contacted with water”.
